Laboratory results reported in the supplement of paper PMC11061612.

How the values were obtained:
Assay in all cases: combination Emax (second highest fraction inhibited in the dose matrix, 72 h); higher = more inhibition; extreme values may be limits of the assay
[1] = tested on: SW620 (Colorectal Carcinoma)
How it was run: (§1)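 After 24 hours at 37°C and 5% CO2 in 1536-well plates, cells in DMEM/F12 or RPMI plus 10% FBS received two-drug dose matrices for 72 hours. Viability came from CellTiter-Glo 2.0 luminescence and was scaled as inhibition, anchored at 0 by vehicle wells and at 1 by blank wells. Combination Emax is taken as the second-highest inhibition in the matrix, and Bliss excess as the observed combination effect less EA + EB − EA·EB, with EA and EB the single-agent effects.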

[2] = tested on: JHH-2 (Hepatocellular Carcinoma)
How it was run: as §1

[3] = tested on: NCI-H441 (Lung Adenocarcinoma)
How it was run: as §1

[4] = tested on: G-402 (Other Solid Carcinomas)
How it was run: as §1

[5] = tested on: MHH-ES-1 (Ewing's Sarcoma)
How it was run: as §1

[6] = tested on: SK-HEP-1 (Hepatocellular Carcinoma)
How it was run: as §1

[7] = tested on: CESS (Acute Myeloid Leukemia)
How it was run: as §1

[8] = tested on: GA-10 (Burkitt's Lymphoma)
How it was run: as §1

[9] = tested on: KYSE-140 (Esophageal Squamous Cell Carcinoma)
How it was run: as §1

[10] = tested on: MDA-MB-436 (Breast Carcinoma)
How it was run: as §1

EB2 (Burkitt's Lymphoma) = tested on: EB2 (Burkitt's Lymphoma)
How it was run: as §1

HCC70 (Breast Carcinoma) = tested on: HCC70 (Breast Carcinoma)
How it was run: as §1

[11] = tested on: HCC1395 (Breast Carcinoma)
How it was run: as §1

[12] = tested on: LS-411N (Colorectal Carcinoma)
How it was run: as §1

[13] = tested on: CA46 (Burkitt's Lymphoma)
How it was run: as §1

[14] = tested on: A2780 (Ovarian Carcinoma)
How it was run: as §1

[15] = tested on: GCT (Other Solid Carcinomas)
How it was run: as §1

[16] = tested on: LU-165 (Small Cell Lung Carcinoma)
How it was run: as §1

[17] = tested on: CGTH-W-1 (Thyroid Gland Carcinoma)
How it was run: as §1

RH-41 (Rhabdomyosarcoma) = tested on: RH-41 (Rhabdomyosarcoma)
How it was run: as §1

Structure (SMILES) | combination Emax [1] | combination Emax [2] | combination Emax [3] | combination Emax [4] | combination Emax [5] | combination Emax [6] | combination Emax [7] | combination Emax [8] | combination Emax [9] | combination Emax [10] | combination Emax (EB2 (Burkitt's Lymphoma)) | combination Emax (HCC70 (Breast Carcinoma)) | combination Emax [11] | combination Emax [12] | combination Emax [13] | combination Emax [14] | combination Emax [15] | combination Emax [16] | combination Emax [17] | combination Emax (RH-41 (Rhabdomyosarcoma))
CCN(CCO)CCCOc1ccc2c(Nc3cc(CC(=O)Nc4cccc(F)c4)[nH]n3)ncnc2c1 [AZD2811] + C[C@@H]1COCCN1C2=NC(=NC(=C2)C3(CC3)[S@](=N)(=O)C)C4=C5C=CNC5=NC=C4 [AZD6738] (first compound max 1 µM, 7x7, partner max 10 µM) | 0.417 | 0.62 | 0.407 | 0.606 | 0.685 | 0.42 | 0.893 | 0.978 | 0.92 | 0.311 | 0.746 | 0.797 | 0.785 | 0.819 | 0.482 | 0.815 | 0.242 | 0.38 | 0.35 | 0.706
CCN(CCO)CCCOc1ccc2c(Nc3cc(CC(=O)Nc4cccc(F)c4)[nH]n3)ncnc2c1 [AZD2811] + O=C(c1cc(Cc2n[nH]c(=O)c3ccccc23)ccc1F)N1CCN(C(=O)C2CC2)CC1 [Olaparib] (first compound max 1 µM, 7x7, partner max 10 µM) | 0.281 | 0.202 | 0.227 | 0.605 | 0.76 | 0.362 | 0.513 | 0.595 | 0.355 | 0.144 | 0.373 | 0.675 | 0.328 | 0.149 | 0.248 | 0.717 | 0.328 | 0.29 | 0.291 | 0.245
CN(CCO)CC[C@H](CSc1ccccc1)Nc1ccc(S(=O)(=O)NC(=O)c2ccc(N3CCC([C@@H](O)c4ccccc4-c4ccc(Cl)cc4)CC3)cc2)cc1S(=O)(=O)C(F)(F)F [AZD4320] + CN(C)CCCOc1ccc(-c2ccc3ncc4c(c3c2)n(C2CCOCC2)c(=O)n4C)cn1 [AZD0156] (first compound max 1 µM, 7x7, partner max 1 µM) | 0.366 | 0.194 | 0.286 | 0.401 | 0.491 | 0.325 | 0.333 | 0.303 | 0.157 | 0.133 | 0.253 | 0.281 | 0.202 | 0.199 | 0.349 | 0.383 | 0.239 | 0.526 | 0.119 | 0.85
COc1nnc2ccc(N3CCC(c4ccc(OCCN5CCN(C)C(=O)[C@H]5C)cc4)CC3)nn12 [AZD5153] + C=CCn1c(=O)c2cnc(Nc3ccc(N4CCN(C)CC4)cc3)nc2n1-c1cccc(C(C)(C)O)n1 [AZD1775] (first compound max 1 µM, partner max 1 µM) | 0.685 | 0.553 | 0.436 | 0.85 | 0.764 | 0.312 | 0.941 | 0.996 | 0.832 | 0.227 | 0.796 | 0.44 | 0.524 | 0.889 | 0.744 | 0.844 | 0.617 | 0.602 | 0.275 | 0.996
COc1nnc2ccc(N3CCC(c4ccc(OCCN5CCN(C)C(=O)[C@H]5C)cc4)CC3)nn12 [AZD5153] + CC1(C)CCC(CN2CCN(c3ccc(C(=O)NS(=O)(=O)c4ccc(NCC5CCOCC5)c([N+](=O)[O-])c4)c(Oc4cnc5[nH]ccc5c4)c3)CC2)=C(c2ccc(Cl)cc2)C1 [Venetoclax] (first compound max 1 µM, 7x7, partner max 1 µM) | 0.431 | 0.357 | 0.381 | 0.769 | 0.682 | 0.485 | 0.638 | 0.693 | 0.603 | 0.227 | 0.559 | 0.309 | 0.411 | 0.728 | 0.658 | 0.736 | 0.595 | 0.468 | 0.212 | 0.909
COc1nnc2ccc(N3CCC(c4ccc(OCCN5CCN(C)C(=O)[C@H]5C)cc4)CC3)nn12 [AZD5153] + CCN(CCO)CCCOc1ccc2c(Nc3cc(CC(=O)Nc4cccc(F)c4)[nH]n3)ncnc2c1 [AZD2811] (first compound max 1 µM, 7x7, partner max 1 µM) | 0.597 | 0.416 | 0.381 | 0.825 | 0.762 | 0.41 | 0.648 | 0.74 | 0.626 | 0.287 | 0.589 | 0.459 | 0.398 | 0.739 | 0.652 | 0.783 | 0.568 | 0.458 | 0.308 | 0.888
COc1nnc2ccc(N3CCC(c4ccc(OCCN5CCN(C)C(=O)[C@H]5C)cc4)CC3)nn12 [AZD5153] + C[C@@H]1COCCN1C2=NC(=NC(=C2)C3(CC3)[S@](=N)(=O)C)C4=C5C=CNC5=NC=C4 [AZD6738] (first compound max 1 µM, 7x7, partner max 10 µM) | 0.784 | 0.711 | 0.562 | 0.941 | 0.812 | 0.406 | 0.905 | 0.962 | 0.821 | 0.332 | 0.764 | 0.659 | 0.671 | 0.947 | 0.754 | 0.848 | 0.6 | 0.685 | 0.448 | 0.99
COc1nnc2ccc(N3CCC(c4ccc(OCCN5CCN(C)C(=O)[C@H]5C)cc4)CC3)nn12 [AZD5153] + Cc1c2c(nn1C)CSCc1cc(n(C)n1)CSc1cc(c3ccccc3c1)OCCCc1c(C(=O)O)n(C)c3c-2c(Cl)ccc13 [AZD5991] (first compound max 1 µM, 7x7, partner max 1 µM) | 0.512 | 0.343 | 0.384 | 0.987 | 0.911 | 0.583 | 0.76 | 0.967 | 0.603 | 0.293 | 0.608 | 0.96 | 0.817 | 0.917 | 0.64 | 0.977 | 0.6 | 0.65 | 0.428 | 1
COc1nnc2ccc(N3CCC(c4ccc(OCCN5CCN(C)C(=O)[C@H]5C)cc4)CC3)nn12 [AZD5153] + Cn1cnc2c(F)c(Nc3ccc(Br)cc3Cl)c(C(=O)NOCCO)cc21 [Selumetinib] (first compound max 1 µM, 7x7, partner max 10 µM) | 0.76 | 0.427 | 0.453 | 0.797 | 0.707 | 0.234 | 0.606 | 0.714 | 0.557 | 0.217 | 0.502 | 0.584 | 0.305 | 0.997 | 0.633 | 0.823 | 0.59 | 0.357 | 0.356 | 0.92
Cc1c2c(nn1C)CSCc1cc(n(C)n1)CSc1cc(c3ccccc3c1)OCCCc1c(C(=O)O)n(C)c3c-2c(Cl)ccc13 [AZD5991] + C1CN(CCC1(C(=O)N[C@@H](CCO)C2=CC=C(C=C2)Cl)N)C3=NC=NC4=C3C=CN4 [Capivasertib] (first compound max 1 µM, 7x7, partner max 3 µM) | 0.16 | 0.604 | 0.237 | 0.984 | 0.591 | 0.334 | 0.566 | 0.858 | 0.862 | 0.201 | 0.479 | 0.99 | 0.911 | 0.362 | 0.351 | 0.838 | 0.438 | 0.261 | 0.265 | 1
Cc1c2c(nn1C)CSCc1cc(n(C)n1)CSc1cc(c3ccccc3c1)OCCCc1c(C(=O)O)n(C)c3c-2c(Cl)ccc13 [AZD5991] + C=CCn1c(=O)c2cnc(Nc3ccc(N4CCN(C)CC4)cc3)nc2n1-c1cccc(C(C)(C)O)n1 [AZD1775] (first compound max 1 µM, partner max 1 µM) | 0.65 | 0.58 | 0.471 | 0.965 | 0.87 | 0.35 | 0.967 | 1 | 0.905 | 0.289 | 0.769 | 0.951 | 0.88 | 0.741 | 0.633 | 0.858 | 0.556 | 0.441 | 0.19 | 1
Cc1c2c(nn1C)CSCc1cc(n(C)n1)CSc1cc(c3ccccc3c1)OCCCc1c(C(=O)O)n(C)c3c-2c(Cl)ccc13 [AZD5991] + CC1(C)CCC(CN2CCN(c3ccc(C(=O)NS(=O)(=O)c4ccc(NCC5CCOCC5)c([N+](=O)[O-])c4)c(Oc4cnc5[nH]ccc5c4)c3)CC2)=C(c2ccc(Cl)cc2)C1 [Venetoclax] (first compound max 1 µM, 7x7, partner max 1 µM) | 0.191 | 0.218 | 0.214 | 0.926 | 0.852 | 0.45 | 0.525 | 0.64 | 0.485 | 0.0835 | 0.332 | 0.938 | 0.736 | 0.157 | 0.118 | 0.817 | 0.288 | 0.291 | 0.257 | 1
